Test results from patent publication US9586931B2 (Merck Sharp & Dohme Corp., priority 2012, dated 2017).
Structures can show the parent of a compound that is named as a salt.

molecular target: T1, recombinant human GST-Syk (Homo sapiens, UniProt P43405); test: Homogeneous Time-Resolved Fluorescence (HTRF) assay for the recombinant human Syk enzyme; type: biochemical; settings: recombinant human GST-Syk 5 pM, ATP 25 μM, 10-dose titration 10 μM to 0.508 nM; read-out: rhSYK Activity IC50
T1 construct: purchased Carna Biosciences 08-176
Method in brief: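 Detection used time-resolved fluorescence 30 min after adding a quench mix (40 mM EDTA, 15 mM Tris pH 7.5, 0.01% Tween 20) containing 2 nM Europium anti-pTyr antibody and 70 nM streptavidin-APC. This followed 45 min of room-temperature peptide phosphorylation by recombinant GST-tagged human Syk.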

IC50 [nM]	SMILES
2390	Cc1cc(Nc2nccc(C(F)(F)F)n2)cc(-n2cc([C@]3(O)CC[C@H](C(=O)OC(C)(C)C)CC3)nn2)c1 [Example 15.5, tert-butyl trans-4-hydroxy-4-[1-(3-methyl-5-{[4-(trifluoromethyl)pyrimidin-2-yl]amino}phenyl)-1H-1,2,3-triazol-4-yl]cyclohexanecarboxylate]
47	CC(O)(CO)Cn1cc(-c2cccc(Nc3nccc(C(F)(F)F)n3)c2)nn1 (single isomer, unassigned) [Example 21.5, 2-methyl-3-[4-(3-{[4-(trifluoromethyl)pyrimidin-2-yl]amino}phenyl)-1H-1,2,3-triazol-1-yl]propane-1,2-diol]
78.8	Cc1cc(Nc2cc(C(F)(F)F)ccn2)nc(-c2cn(CC3=CCCCC3)nn2)c1 [Example 9.6, 6-[1-(cyclohex-1-en-1-ylmethyl)-1H-1,2,3-triazol-4-yl]-4-methyl-N-[4-(trifluoromethyl)pyridin-2-yl]pyridin-2-amine]
63.3	Cc1cc(Nc2cc(C(F)(F)F)ccn2)nc(-c2cn(CC(O)C(O)COc3ccccc3Cl)nn2)c1 (stereo not drawn) [Example 10.8, 1-(2-chlorophenoxy)-4-[4-(4-methyl-6-{[4-(trifluoromethyl)pyridin-2-yl]amino}pyridin-2-yl)-1H-1,2,3-triazol-1-yl]butane-2,3-diol]
8.6	Cc1cc(Nc2cc(C(F)F)ccn2)nc(-c2cn(CC3CNC(=O)C3)nn2)c1 (single isomer, unassigned) [Example 24.2, 4-((4-(6-((4-(difluoromethyl)pyridin-2-yl)amino)-4-methylpyridin-2-yl)-1H-1,2,3-triazol-1-yl)methyl)pyrrolidin-2-one]
14.5	Cc1cc(Nc2nccc(C(F)(F)F)n2)cc(-n2cc(C3(O)CCC(C(=O)O)C(C)(C)C3)nn2)c1 (stereo not drawn) [Example 15.2]
11.4	Cc1cc(Nc2nccc(C(F)F)n2)cc(-c2cn(C(C)C(C)(O)CO)nn2)c1 (single isomer, unassigned) [Example 30.4, 3-(4-(3-((4-(Difluoromethyl)pyrimidin-2-yl)amino)-5-methylphenyl)-1H-1,2,3-triazol-1-yl)-2-methylbutane-1,2-diol]
23.1	Cc1cc(Nc2cc(C(C)F)ccn2)nc(-c2cn(CC(C)(O)C(C)(C)O)nn2)c1 (stereo not drawn) [Example 21.17, 1-[4-(6-{[4-(1-fluoroethyl)pyridin-2-yl]amino}-4-methylpyridin-2-yl)-1H-1,2,3-triazol-1-yl]-2,3-dimethylbutane-2,3-diol]
15	Cc1cc(Nc2cc(C(F)(F)F)ccn2)nc(-c2cn(C3CN(C(=O)CCC(N)=O)CC3O)nn2)c1 (stereo not drawn) [Example 13.5, 4-{-3-hydroxy-4-[4-(4-methyl-6-{[4-(trifluoromethyl)pyridin-2-yl]amino}pyridin-2-yl)-1H-1,2,3-triazol-1-yl]pyrrolidin-1-yl}-4-oxobutanamide]
18.8	Cc1cc(Nc2cc(C(F)(F)F)ccn2)nc(-c2cn(CC(O)C(C)O)nn2)c1 (stereo not drawn) [Example 10.13, 1-[4-(4-methyl-6-{[4-(trifluoromethyl)pyridin-2-yl]amino}pyridin-2-yl)-1H-1,2,3-triazol-1-yl]butane-2,3-diol]

The next lines start with the compound.

SMILES	IC50 [nM]
Cc1cc(Nc2cc(C(F)(F)F)ccn2)nc(-c2cn(C(C(=O)O)c3ccccc3)nn2)c1 (stereo not drawn) [Example 3.11, [4-(4-methyl-6-{[4-(trifluoromethyl)pyridin-2-yl]amino}pyridin-2-yl)-1H-1,2,3-triazol-1-yl](phenyl)acetic acid]	5.1
Cc1ccnc(Nc2cc(C)cc(-c3cn(C[C@H](C)CO)nn3)n2)c1 [Example 5.16, (2S)-2-methyl-3-(4-{4-methyl-6-[(4-methylpyridin-2-yl)amino]pyridin-2-yl}-1H-1,2,3-triazol-1-yl)propan-1-ol]	235
Cc1cc(Nc2cc(C(F)(F)F)ccn2)nc(-c2cn(C3CCC(C(=O)O)C(C)(C)C3)nn2)c1 (single isomer, unassigned) [Example 3.9, 2,2-dimethyl-4-[4-(4-methyl-6-{[4-(trifluoromethyl)pyridin-2-yl]amino}pyridin-2-yl)-1H-1,2,3-triazol-1-yl]cyclohexanecarboxylic acid]	3
Cc1cc(Nc2cc(C(F)(F)F)ccn2)nc(-c2cn(C[C@H](O)C(=O)O)nn2)c1 [Example 4.19, (2S)-2-hydroxy-3-[4-(4-methyl-6-{[4-(trifluoromethyl)pyridin-2-yl]amino}pyridin-2-yl)-1H-1,2,3-triazol-1-yl]propanoic acid]	14.9
Cc1cc(Nc2cc(C(F)(F)F)ccn2)nc(-c2cn(CC#N)nn2)c1 [Example 5.92, [4-(4-methyl-6-{[4-(trifluoromethyl)pyridin-2-yl]amino}pyridin-2-yl)-1H-1,2,3-triazol-1-yl]acetonitrile]	22
Cc1cc(Nc2cc(C(F)(F)F)ccn2)nc(-c2cn(C(C)C(=O)NCCc3ccc4ccccc4c3)nn2)c1 (stereo not drawn) [Example 1.32, 2-[4-(4-methyl-6-{[4-(trifluoromethyl)pyridin-2-yl]amino}pyridin-2-yl)-1H-1,2,3-triazol-1-yl]-N-(2-naphthalen-2-ylethyl)propanamide]	357
Cc1cc(Nc2cc(C(F)(F)F)ccn2)nc(-c2cn(CC(=O)O)nn2)c1 [Example 5.88, [4-(4-methyl-6-{[4-(trifluoromethyl)pyridin-2-yl]amino}pyridin-2-yl)-1H-1,2,3-triazol-1-yl]acetic acid]	52.9
Cc1cc(Nc2nccc(C(F)F)n2)cc(-c2cn(CC3CNC(=O)O3)nn2)c1 (single isomer, unassigned) [Example 7.5, 5-((4-(3-((4-(difluoromethyl)pyrimidin-2-yl)amino)-5-methylphenyl)-1H-1,2,3-triazol-1-yl)methyl)oxazolidin-2-one]	7.1
Cc1cc(Nc2cc(C(F)(F)F)ccn2)nc(-c2cn(C[C@@H]3CNC(=O)O3)nn2)c1 [Example 5.103, (5S)-5-{[4-(4-methyl-6-{[4-(trifluoromethyl)pyridin-2-yl]amino}pyridin-2-yl)-1H-1,2,3-triazol-1-yl]methyl}-1,3-oxazolidin-2-one]	1.9
Cc1cc(Nc2cc(C(F)(F)F)ccn2)nc(-c2cn(C(C)C(=O)NCC(c3ccc(C(F)(F)F)cc3)N3CCOCC3)nn2)c1 (stereo not drawn) [Example 1.52, 2-[4-(4-methyl-6-{[4-(trifluoromethyl)pyridin-2-yl]amino}pyridin-2-yl)-1H-1,2,3-triazol-1-yl]-N-{2-morpholin-4-yl-2-[4-(trifluoromethyl)phenyl]ethyl}propanamide]	435
Cc1cc(Nc2cc(C(F)F)ccn2)nc(-c2cn(CC3(C)CNC(=O)O3)nn2)c1 (single isomer, unassigned) [Example 7.8, 5-((4-(6-((4-(difluoromethyl)pyridin-2-yl)amino)-4-methylpyridin-2-yl) 1H-1,2,3-triazol-1-yl)methyl)-5-methyloxazolidin-2-one]	1.9
Cc1cc(Nc2cc(C(F)(F)F)ccn2)nc(-c2cn([C@@H](C)C(=O)O)nn2)c1 [Example 5.30, (2S)-2-[4-(4-methyl-6-{[4-(trifluoromethyl)pyridin-2-yl]amino}pyridin-2-yl)-1H-1,2,3-triazol-1-yl]propanoic acid]	39.8
Cc1cc(Nc2cc(C(F)(F)F)ccn2)nc(-c2cn(C(C)C(=O)NCCc3cccc4ccccc34)nn2)c1 (stereo not drawn) [Example 1.44, 2-[4-(4-methyl-6-{[4-(trifluoromethyl)pyridin-2-yl]amino}pyridin-2-yl)-1H-1,2,3-triazol-1-yl]-N-(2-naphthalen-1-ylethyl)propanamide]	626
Cc1cc(Nc2nccc(C(F)(F)F)n2)cc(-c2cn(C3COCC3O)nn2)c1 (single isomer, unassigned) [Example 4.4, 4-[4-(3-methyl-5-{[4-(trifluoromethyl)pyrimidin-2-yl]amino}phenyl)-1H-1,2,3-triazol-1-yl]tetrahydrofuran-3-ol]	26.1
Cc1cc(Nc2cc(C(F)(F)F)ccn2)nc(-c2cn(C3CNCC3O)nn2)c1 (racemic) [Example 5.22, 4-[4-(4-methyl-6-{[4-(trifluoromethyl)pyridin-2-yl]amino}pyridin-2-yl)-1H-1,2,3-triazol-1-yl]pyrrolidin-3-ol]	19.8
COC(=O)CNC(=O)[C@H](C)n1cc(-c2cc(C)cc(Nc3cc(C(F)(F)F)ccn3)n2)nn1 [Example 1.1, Methyl N-{(2S)-2-[4-(4-methyl-6-{[4-(trifluoromethyl)pyridin-2-yl]amino}pyridin-2-yl)-1H-1,2,3-triazol-1-yl]propanoyl}glycinate trifluoroacetate]	76.3
Cc1cc(Nc2cc(C(F)(F)F)ccn2)nc(-c2cn(C[C@@H](O)C(N)=O)nn2)c1 [Example 1.14, (2R)-2-hydroxy-3-[4-(4-methyl-6-{[4-(trifluoromethyl)pyridin-2-yl]amino}pyridin-2-yl)-1H-1,2,3-triazol-1-yl]propanamide]	9.1
Cc1cc(Nc2cc(C(F)(F)F)ccn2)nc(-c2cn(CC(O)C(F)(F)F)nn2)c1 (racemic) [Example 5.83, 1,1,1-trifluoro-3-[4-(4-methyl-6-{[4-(trifluoromethyl)pyridin-2-yl]amino}pyridin-2-yl)-1H-1,2,3-triazol-1-yl]propan-2-ol]	4.4
Cc1cc(Nc2nccc(C(F)(F)F)n2)cc(-c2cn(CC(=O)N3COCC3(C)C)nn2)c1 [Example 5.68, N-(3-{1-[2-(4,4-dimethyl-1,3-oxazolidin-3-yl)-2-oxoethyl]-1H-1,2,3-triazol-4-yl}-5-methylphenyl)-4-(trifluoromethyl)pyrimidin-2-amine]	114
Cc1cc(Nc2cc(C(F)(F)F)ccn2)nc(-c2cn(C3CCC(C(N)=O)C(C)(C)C3)nn2)c1 (single isomer, unassigned) [Example 1.4, 2,2-dimethyl-4-[4-(4-methyl-6-{[4-(trifluoromethyl)pyridin-2-yl]amino}pyridin-2-yl)-1H-1,2,3-triazol-1-yl]cyclohexanecarboxamide]	3.8
